Patent EP3181118B1, “SYNERGISTIC COMBINATION OF TXNR INHIBITORS AND ASCORBATE FOR TREATMENT OF B CELL MALIGNANCIES” (Warszawski Uniwersytet Medyczny, priority 2015, dated 2017)
Where two headings read alike, the source gives them in different places.

Legend:
[1] = cited from earlier work
advanced cancers = conditions: patients with advanced cancers, L-ASC-treated subjects; cited from earlier work
lymphoma cells = lymphoma cells in vitro; cited from earlier work
Raji cells [2] = experiment: Number of dead cells by propidium iodide staining, flow cytometry; assay type: cell-based, human; conditions: 48 hours, Fig. 2; for propidium iodide-positive cells (dead cells): compound alone (L-ASC 100 µM)
Procedure: Raji cells were grown in RPMI medium supplemented with 10% fetal bovine serum and antibiotic/antimycotic solution. […] Cytostatic/cytotoxic effects of treatment were assessed by:
(b) Quantitation of the number of dead cells with propidium iodide staining using flow cytometry
100 µl of cells were mixed with 100 µl of propidium iodide solution (4 µg/ml in PBS) and the number of propidium iodide-positive cells (dead cells) was assessed using flow cytometer Accuri C6.

Raji cells [3] = experiment: Intracellular ROS level, CM-H2-DCFDA fluorescent probe, flow cytometry; assay type: cell-based, human
Procedure: The level of intracellular ROS in Raji cells treated with L-ASC and SK053 alone or in combination was evaluated. Raji cells were loaded with CM-H2-DCFDA fluorescent probe (Molecular Probes) according to the manufacturer's protocol, using 1 µM dye concentration for 30 min. at 37 °C. […] After 8 hours cells were harvested in PBS and the intensity of green fluorescence was analyzed by flow cytometry (Accuri C6).

Raji cells [4] = experiment: MTT assay, cytostatic/cytotoxic effects; assay type: cell-based, human; conditions: 48 hours, Fig. 1
Procedure: Raji cells were grown in RPMI medium supplemented with 10% fetal bovine serum and antibiotic/antimycotic solution. Raji cells were incubated for 15 min at 37 °C with 100 µM or 200 µM L-ASC and then TXNR inhibitors, SK053 or AUR, were added and the cells were cultured for additional 48 hours. Cytostatic/cytotoxic effects of treatment were assessed by:
(a) MTT (3-[4,5-dimethylthiazol-2-yl]-2,5-diphenyltetrazolium bromide) assay
20 µl of MTT (5mg/ml in PBS) was added to 100 µl of cells and maintained in cell culture conditions. After 2 hours, 100 µl of solubilization buffer (10% SDS, 0,01N HCl) was added to each well and plates were maintained in a cell culture incubator overnight. The absorbance was measured at 560 nm using a microplate reader (ASYS UVM 340, Biochrom). The relative viability was calculated according to the following formula: % viability = [(Am - Ab)/(Ac - Ab)] × 100%, where Am is the measured absorbance, Ab is the background absorbance, and Ac is the absorbance of vehiculum-treated controls (DMSO).

Raji cells [5] = experiment: Comparison of ascorbate stereoisomers and oxidized form combined with TXNR inhibitors (Fig. 3); assay type: cell-based, human; conditions: ascorbate form combined with SK053 or AUR
adult rats = conditions: cited from earlier work
[6] = system: normal B cells isolated from human tonsils; experiment: Non-viable cells by propidium iodide staining in normal B cells; assay type: cell-based; conditions: TXNR inhibitor in combination with L-ASC, 48 hours, three healthy donors, Fig. 5
Procedure: Human tonsils were derived from subjects undergoing tonsillectomy. After resection, tonsils were cut into small pieces and incubated in the RPMI medium supplemented with collagenase and DNase for 30 min at 37 °C with gentle shaking and filtered through 70 µm cell strainer. After washing in PBS, mononuclear cells were isolated with Histopaque 1077 density gradient and subjected to CD19 negative selection using EasySep™ Human B Cell Enrichment Kit ([…] Technologies). The purity of isolated B cells exceeded 95%. Subsequently, B cells were suspended in RPMI medium supplemented with 10% fetal bovine serum and antibiotic/antimycotic solution, and incubated with L-ASC, SK053, AUR, exactly as Raji cells (described in Example 1). After 48 hours of incubation, the number of non-viable cells was determined by flow cytometry, as the fraction of propidium iodide positive cells. […] This experiment was repeated in three different healthy donors.

adult mice = conditions: cited from earlier work
[7] = cited from earlier work; remark: listed apart in the source

O=C1O[C@H]([C@@H](O)CO)C(O)=C1O [L-ASC, L-ascorbate]
plasma concentration ([1]; high oral doses): approximately 220 µM
L-ASC plasma concentrations ([1]; intravenous (i.v.) delivery): up to 20 mM
L-ASC plasma concentrations ([1]; oral administration, maximal): ≤ 300 µM
peak plasma concentrations ([1]; slow i.v. infusion of high doses): over 10 mM
increased mean survival time (MST) (advanced cancers): over 4 fold
LD50 (lymphoma cells): ~0,5 mM
propidium iodide-positive cells (dead cells) (Raji cells [2]): < 10%
ROS levels in the presence of catalase (Raji cells [3]; compound alone, with 100 µg/ml catalase, Fig. 4B): at the control levels
ROS levels (Raji cells [3]; compound alone: 100 µM ASC or 20 µM SK053, 8 hours, Fig. 4A): only slightly increased ROS levels
viability of Raji cells (Raji cells [4]; L-ASC alone at 100 µM and 200 µM): did not affect the viability

O=C1O[C@H]([C@@H](O)CO)C(=O)C1=O [L-DHA, dehydroascorbic acid]
interaction with TXNR inhibitors (SK053, AUR), cytotoxicity to Raji cells (Raji cells [5]): had no impact on cytotoxicity

CC(=O)OC[C@H]1O[C@@H]([S-])[C@H](OC(C)=O)[C@@H](OC(C)=O)[C@@H]1OC(C)=O.CCP(CC)CC.[Au+] [AUR, (2,3,4,6-tetra-O-acetyl-1-thio-β-D-glucopyranosato-S-) (triethyl-phosphine) gold complex]
acute oral LD50 (adult rats; adult rats, oral): 265 mg/kg
minimum lethal dose (adult rats; rats): 30 mg/kg
dead cells (Raji cells [2]; TXNR inhibitor in combination with 100 µM L-ASC): ~100%
propidium iodide-positive cells (dead cells) (Raji cells [2]): < 10%
synergistic cytotoxic effect with L-ASC, fraction of propidium iodide positive cells [6]: synergistic cytotoxic effect between none of the TXNR inhibitors and L-ASC was observed
cytostatic/cytotoxic effects of TXNR inhibitor in combination with L-ASC (Raji cells [4]; in combination with 100 µM or 200 µM L-ASC): remarkably increased the cytostatic/cytotoxic effects
acute oral LD50 (adult mice): 310 mg/kg
labelled gold excreted ([7]; by day 10, total): 77%
labelled gold excreted with feces ([7]; by day 10): 73%
labelled gold excreted with urine ([7]; by day 10): 4%
AUR gold bound to red blood cells ([7]; in blood): approximately 40%
AUR gold bound to serum proteins ([7]; in blood): 60%
oral dose absorbed ([7]; oral, radiolabelled AUR): approximately 25%
peak plasma concentrations ([7]; oral, radiolabelled AUR): 0.3 to 0.4 µM
time to reach peak plasma concentrations ([7]; oral, radiolabelled AUR): 1 to 2 h
mean plasma half-life ([7]; radiolabelled AUR): 17 days
labelled gold retained in the body ([7]; six months after a single dose): 0,4%
